Assay results reported in patent publication US20100081679A1, “DIAMINOPYRIMIDINES AS FUNGICIDES” (Bayer CropScience AG, priority 2007, published 2010).
Marks after values point to notes of the source that are not given here.

Assay: logP determination via retention times, calibrated with unbranched alkan-2-ones
Assay type: physicochemical
Conditions: HPLC on reversed-phase C 18, EEC Directive 79/831 Annex V.A8; method *: 40° C., 0.1% aqueous formic acid and acetonitrile, linear gradient 10% to 95% acetonitrile

logP | Structure (SMILES)
1.61* | CCC(=O)Nc1cccc(Nc2ncc(Cl)c(NCC3CC3)n2)c1 [compound 508]
1.93* | CC(C)(C)NC(=O)Cc1cccc(Nc2ncc(Cl)c(NCC3CC3)n2)c1 [compound 561]
1.63* | CN(C=O)c1ccc(Nc2ncc(Br)c(NCC3CC3)n2)cc1 [compound 490]
2.25* | FC(F)Oc1ccc(Nc2ncc(Cl)c(NCC3CC3)n2)cc1 [compound 538]
2.7* | N#Cc1ccc(Nc2ncc(Br)c(NCC3CC3)n2)cc1 [compound 475]

Same assay, conditions: HPLC on reversed-phase C 18, method **: 43° C.; 0.1% aqueous phosphoric acid and acetonitrile; linear gradient 10% to 95% acetonitrile

logP | Structure (SMILES)
1.82** | CC(=O)Nc1cc(Nc2ncc(C(F)(F)F)c(NC3CC3)n2)ccc1C [compound 662]

Same assay, conditions: HPLC on reversed-phase C18, method *: 40° C., 0.1% aqueous formic acid and acetonitrile, linear gradient 10% to 95% acetonitrile

Structure (SMILES) | logP
CSc1ccc(Nc2ncc(Cl)c(NCC3CC3)n2)cc1 [compound 674] | 2.18*
CS(=O)(=O)c1ccc(Nc2ncc(Cl)c(NCC3CC3)n2)cc1 [compound 670] | 1.97*
Cc1cc(O)ccc1Nc1ncc(Br)c(NC2CC2)n1 [compound 112] | 1.21*
CC(=O)Nc1cc(Nc2ncc(C(F)(F)F)c(NC3CC3)n2)ccc1C [compound 662] | 1.71*;
OC(c1cccc(Nc2ncc(C(F)(F)F)c(NC3CC3)n2)c1)C(F)(F)F (centres unmarked) [compound 666] | 2.69*
CSc1cccc(Nc2ncc(Br)c(NC3CC3)n2)c1 [compound 121] | 2.44*
N#Cc1cccc(Nc2ncc(Cl)c(NCC3CC3)n2)c1 [compound 685] | 2.26*
O=C1OCCN1c1ccc(Nc2ncc(Br)c(NC3CC3)n2)cc1 [compound 175] | 1.37*
O=C(Nc1ccc(Nc2ncc(Cl)c(NCC3CC3)n2)cc1)C(F)(F)F [compound 672] | 2.02*

Further lines, results first:

logP | Structure (SMILES)
2.86* | O=C(c1ccc(Nc2ncc(C(F)(F)F)c(NC3CC3)n2)cc1)N1CCCCC1 [compound 725]
1.47* | O=C1CCCCN1c1cccc(Nc2ncc(Cl)c(NC3CC3)n2)c1 [compound 713]
2.95* | FC(F)(F)Oc1ccc(Nc2ncc(Cl)c(NCC3CC3)n2)cc1 [compound 688]
2.06* | Clc1cnc(Nc2ccc(-c3cscn3)cc2)nc1NCC1CC1 [compound 689]
3.72* | CC(C)Sc1ccccc1Nc1ncc(Cl)c(NC2CC2)n1 [compound 885]
1.75* | CC(=O)c1cc(Nc2ncc(Br)c(NC3CC3)n2)ccc1O [compound 763]
1.94* | CC(C)(C)NC(=O)Cc1cccc(Nc2ncc(Br)c(NC3CC3)n2)c1 [compound 698]
1.48* | O=C1CCCN1c1cccc(Nc2ncc(C(F)F)c(NCC3CC3)n2)c1 [compound 774]
1.85* | CCC(=O)Nc1cc(Nc2ncc(Br)c(NC3CC3)n2)ccc1O [compound 767]
3.33* | N#Cc1cc(Nc2ncc(Cl)c(NC3CC3)n2)c(F)cc1Cl [compound 936]
1.56* | FC(F)c1cnc(Nc2ccccc2)nc1NC1CC1 [compound 722]

Same assay, conditions: HPLC on reversed-phase C18, method *: 40° C.; mobile phase 0.1% aqueous formic acid and acetonitrile; linear gradient 10% to 95% acetonitrile

logP | Structure (SMILES)
2.32* | CCC(=O)c1cccc(Nc2ncc(Br)c(NC3CC3)n2)c1 [compound 305]
1.83* | CC(C)(C)C(=O)Nc1ccc(Nc2ncc(Br)c(NC3CC3)n2)cc1 [compound 347]
2.01* | CCOC(=O)C1(Nc2nc(Nc3cc(OC)c(OC)c(OC)c3)ncc2Cl)CC1 [compound 317]
1.85* | COc1ccccc1Nc1ncc(Cl)c(NC2CC2)n1 [compound 282]
1.99* | CC(C)OC(=O)Nc1cccc(Nc2ncc(Cl)c(NC3CC3)n2)c1 [compound 302]
2.09* | Fc1ccccc1Nc1ncc(Cl)c(NC2CC2)n1 [compound 275]
1.56* | CN(C)C(=O)c1ccc(Nc2ncc(Br)c(NC3CC3)n2)cc1 [compound 351]
3.13* | CCOC(=O)C1(Nc2nc(Nc3cccc(Cl)c3)ncc2Cl)CC1 [compound 316]

Same assay, conditions: HPLC on reversed-phase C18 column (EEC Directive 79/831 Annex V.A8); method *: 40° C.; 0.1% aqueous formic acid and acetonitrile; linear gradient 10% to 95% acetonitrile

logP | Structure (SMILES)
1.86* | Oc1ccc(Nc2ncc(Cl)c(NC3CC3)n2)cc1C1CCCC1 [compound 187]
2.32* | Clc1cnc(Nc2ccc(-c3nccs3)cc2)nc1NC1CC1 [compound 253]
2.91* | COc1cccc(Nc2ncc(C(F)(F)F)c(NCC3CC3)n2)c1 [compound 199]

Same assay, conditions: HPLC reversed-phase C 18, EEC Directive 79/831 Annex V.A8; method *: 40° C., 0.1% aqueous formic acid and acetonitrile, linear gradient 10% to 95% acetonitrile

logP | Structure (SMILES)
1.97* | COc1cccc(Nc2ncc(I)c(NC3CC3)n2)c1 [compound 855]
2.44* | CCc1cccc(Nc2ncc(Br)c(NC3CC3)n2)c1 [compound 775]
1.75* | N#CCc1cccc(Nc2ncc(Br)c(NC3CC3)n2)c1 [compound 794]
2.92* | CC(C)(C)c1ccc(Nc2ncc(Cl)c(NC3CC3)n2)cc1 [compound 829]
1.86* | COCc1cccc(Nc2ncc(I)c(NC3CC3)n2)c1 [compound 847]
2.08* | CN(C)C(=O)c1ccc(Nc2ncc(C(F)(F)F)c(NC3CC3)n2)cc1 [compound 824]

Same assay, conditions: method **: HPLC reversed-phase C 18, 43° C., 0.1% aqueous phosphoric acid and acetonitrile, linear gradient 10% to 95% acetonitrile

logP | Structure (SMILES)
1.37** | NS(=O)(=O)c1ccc(Nc2ncc(Cl)c(NC3CC3)n2)cc1 [compound 25]

Same assay, conditions: method **: HPLC reversed-phase C 18, temperature 43° C.; mobile phase 0.1% aqueous phosphoric acid and acetonitrile; linear gradient 10% to 95% acetonitrile

logP | Structure (SMILES)
1.77** | CC(=O)Nc1cccc(Nc2ncc(C(F)(F)F)c(NC3CC3)n2)c1 [compound 649]

Same assay, conditions: method *: HPLC reversed-phase C18, 40° C., 0.1% aqueous formic acid and acetonitrile, linear gradient 10% to 95% acetonitrile

logP | Structure (SMILES)
1.73* | CCN(C(C)=O)c1ccc(Nc2ncc(Br)c(NC3CC3)n2)cc1 [compound 380]
1.62* | CC(=O)N(c1ccc(Nc2ncc(Cl)c(NC3CC3)n2)cc1)C1CC1 [Example 63]
2.26* | CC(=O)c1ccc(Nc2ncc(Br)c(NCC3CC3)n2)cc1 [compound 456]
0.62* | O=C1NC(=O)C(c2ccc(Nc3ncc(Br)c(NC4CC4)n3)cc2)N1 (centres unmarked) [compound 384]
1.34* | COc1ccc(Nc2ncc(Cl)c(NC3CC3)n2)cn1 [compound 92]
1.8* | Fc1ccc(Nc2ncc(Cl)c(NC3CC3)n2)cc1 [Example 80]
1.46* | Cc1ccc(Nc2ncc(Br)c(NC3CC3)n2)cc1O [compound 366]
1.44* | Cc1ccc(S(=O)(=O)O)cc1.O=C1CCCN1c1ccc(Nc2ncc(Cl)c(NC3CC3)n2)cc1 [Example 89]
1.64* | CC(=O)Nc1ccc(Nc2ncc(Br)c(NC3CC3)n2)cc1Cl [compound 379]

Same assay, conditions: method *: HPLC reversed-phase C 18, temperature 40° C.; mobile phase 0.1% aqueous formic acid and acetonitrile; linear gradient 10% to 95% acetonitrile

logP | Structure (SMILES)
1.28* | CNC(=O)Nc1cccc(Nc2ncc(F)c(NC3CC3)n2)c1 [compound 597]
1.78*; | CC(=O)Nc1cccc(Nc2ncc(C(F)(F)F)c(NC3CC3)n2)c1 [compound 649]
1.73* | CSc1cccc(Nc2ncc(F)c(NC3CC3)n2)c1 [compound 586]
1.5* | N#Cc1cnc(Nc2ccc3c(c2)CC(=O)N3)nc1NC1CC1 [compound 613]
2.77* | CC(C)(C)OC(=O)NCc1ccc(Nc2ncc(C#N)c(NC3CC3)n2)cc1 [compound 615]
1.23* | CC(=O)N(C)c1ccc(Nc2ncc(F)c(NC3CC3)n2)cc1 [compound 582]

Same assay, conditions: method *: HPLC, reversed-phase C 18, 40° C., mobile phase 0.1% aqueous formic acid and acetonitrile, linear gradient from 10% to 95% acetonitrile

logP | Structure (SMILES)
3.78* | CCCCSc1cccc(Nc2ncc(Cl)c(NC3CC3)n2)c1 [compound 1054]
4.19* | CCSC(C)c1cccc(Nc2ncc(C(F)(F)F)c(NC3CC3)n2)c1 (centres unmarked) [compound 987]
2.11* | Clc1cnc(Nc2ccc3c(c2)CCC3)nc1NC1CC1 [compound 1000]
3.18* | Clc1cnc(Nc2cccc(C3CCCC3)c2)nc1NC1CC1 [compound 1066]

Same assay, conditions: pH 2.3; read-out: logP (pH2.3)

chromatographic logP | Structure (SMILES)
1.73 | CC(C)NC(=O)c1ccc(Nc2ncc(Cl)c(NC3CC3)n2)cc1 [Example 43, 4-{[5-Chloro-4-(cyclopropylamino)pyrimidin-2-yl]amino}-N-isopropylbenzamide]
1.61 | Clc1cnc(Nc2ccccc2)nc1NC1CC1 [Example 2, 5-Chloro-N^4-cyclopropyl-N^2-phenylpyrimidine-2,4-diamine]

Same assay, conditions: reversed-phase C18 HPLC column; method **: HPLC reversed-phase C 18, 43° C., 0.1% aqueous phosphoric acid and acetonitrile, linear gradient 10% to 95% acetonitrile; read-out: logP

chromatographic logP | Structure (SMILES)
1.73 | CC(C)NC(=O)c1ccc(Nc2ncc(Cl)c(NC3CC3)n2)cc1 [Example 43, 4-{[5-Chloro-4-(cyclopropylamino)pyrimidin-2-yl]amino}-N-isopropylbenzamide]

Same assay, conditions: reversed-phase C18 HPLC column; method *: HPLC reversed-phase C 18, 40° C., 0.1% aqueous formic acid and acetonitrile, linear gradient 10% to 95% acetonitrile; read-out: logP

chromatographic logP | Structure (SMILES)
1.61 | Clc1cnc(Nc2ccccc2)nc1NC1CC1 [Example 2, 5-Chloro-N^4-cyclopropyl-N^2-phenylpyrimidine-2,4-diamine]
